Laboratory results: the supplement of paper PMC11061612

Legend:
Test in all cases: Bliss excess, mean over the matrix (fraction); higher = more synergy
[1] = system: HOP-92 (Non-Small Cell Lung Carcinoma)
Outline: (§1)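 Cell lines in DMEM/F12 or RPMI with 10% FBS were plated in 1536-well plates, held 24 hours at 37°C, 5% CO2, then given two-drug dose matrices for 72 hours (DMSO typically 0.2%). Viability was read by CellTiter-Glo 2.0 luminescence and scaled as inhibition from 0 (vehicle wells) to 1 (blank wells). Combination Emax is the second-highest inhibition in the matrix; Bliss excess is observed combination effect minus expected EA + EB − EA·EB, EA and EB being single-agent effects.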

[2] = system: ETK-1 (Biliary Tract Carcinoma)
Outline: as §1

[3] = system: U-118-MG (Low Grade Glioma)
Outline: as §1

[4] = system: SK-LMS-1 (Other Solid Carcinomas)
Outline: as §1

[5] = system: JHH-6 (Hepatocellular Carcinoma)
Outline: as §1

SK-MEL-1 (Melanoma) = system: SK-MEL-1 (Melanoma)
Outline: as §1

[6] = system: NCI-H1688 (Small Cell Lung Carcinoma)
Outline: as §1

Saos-2 (Osteosarcoma) = system: Saos-2 (Osteosarcoma)
Outline: as §1

[7] = system: 647-V (Bladder Carcinoma)
Outline: as §1

D-392MG (Glioblastoma) = system: D-392MG (Glioblastoma)
Outline: as §1

A172 (Glioblastoma) = system: A172 (Glioblastoma)
Outline: as §1

[8] = system: DOK (Oral Cavity Carcinoma)
Outline: as §1

[9] = system: PA-TU-8902 (Pancreatic Carcinoma)
Outline: as §1

HCC38 (Breast Carcinoma) = system: HCC38 (Breast Carcinoma)
Outline: as §1

[10] = system: MEG-01 (Chronic Myelogenous Leukemia)
Outline: as §1

[11] = system: RCC10RGB (Kidney Carcinoma)
Outline: as §1

CS1 (Chondrosarcoma) = system: CS1 (Chondrosarcoma)
Outline: as §1

[12] = system: HCC-827 (Lung Adenocarcinoma)
Outline: as §1

[13] = system: GDM-1 (Acute Myeloid Leukemia)
Outline: as §1

[14] = system: SLVL (B-Cell Non-Hodgkin's Lymphoma)
Outline: as §1

SMILES | Bliss excess [1] | Bliss excess [2] | Bliss excess [3] | Bliss excess [4] | Bliss excess [5] | Bliss excess (SK-MEL-1 (Melanoma)) | Bliss excess [6] | Bliss excess (Saos-2 (Osteosarcoma)) | Bliss excess [7] | Bliss excess (D-392MG (Glioblastoma)) | Bliss excess (A172 (Glioblastoma)) | Bliss excess [8] | Bliss excess [9] | Bliss excess (HCC38 (Breast Carcinoma)) | Bliss excess [10] | Bliss excess [11] | Bliss excess (CS1 (Chondrosarcoma)) | Bliss excess [12] | Bliss excess [13] | Bliss excess [14]
CCN(CCO)CCCOc1ccc2c(Nc3cc(CC(=O)Nc4cccc(F)c4)[nH]n3)ncnc2c1 [AZD2811] + O=C(c1cc(Cc2n[nH]c(=O)c3ccccc23)ccc1F)N1CCN(C(=O)C2CC2)CC1 [Olaparib] (first compound max 1 µM, 7x7, partner max 10 µM) | -0.0048 | 0.0049 | 0.0186 | 0.0076 | -0.0127 | -0.0325 | -0.0131 | 0.0395 | 0.0433 | -0.0695 | 0.044 | -0.0086 | 0.0081 | -0.003 | -0.0628 | -0.0004 | -0.0515 | -0.0162 | -0.0709 | -0.001
CN(CCO)CC[C@H](CSc1ccccc1)Nc1ccc(S(=O)(=O)NC(=O)c2ccc(N3CCC([C@@H](O)c4ccccc4-c4ccc(Cl)cc4)CC3)cc2)cc1S(=O)(=O)C(F)(F)F [AZD4320] + C1CN(CCC1(C(=O)N[C@@H](CCO)C2=CC=C(C=C2)Cl)N)C3=NC=NC4=C3C=CN4 [Capivasertib] (first compound max 1 µM, 7x7, partner max 3 µM) | -0.038 | -0.0305 | -0.0546 | -0.0225 | -0.0437 | -0.0281 | -0.0173 | 0.0035 | 0.0056 | -0.0649 | -0.0588 | -0.0554 | -0.0448 | 0.0057 | -0.0223 | -0.0576 | -0.022 | -0.0644 | -0.0206 | 0.0563
CN(CCO)CC[C@H](CSc1ccccc1)Nc1ccc(S(=O)(=O)NC(=O)c2ccc(N3CCC([C@@H](O)c4ccccc4-c4ccc(Cl)cc4)CC3)cc2)cc1S(=O)(=O)C(F)(F)F [AZD4320] + C=CCn1c(=O)c2cnc(Nc3ccc(N4CCN(C)CC4)cc3)nc2n1-c1cccc(C(C)(C)O)n1 [AZD1775] (first compound max 1 µM, partner max 1 µM) | 0.101 | -0.0295 | 0.0108 | 0.0447 | -0.0095 | -0.0091 | 0.0959 | 0.0348 | 0.0479 | 0.0474 | -0.0101 | -0.0273 | -0.0357 | 0.0723 | 0.0516 | -0.0183 | -0.0017 | -0.0164 | 0.0814 | 0.0422
CN(CCO)CC[C@H](CSc1ccccc1)Nc1ccc(S(=O)(=O)NC(=O)c2ccc(N3CCC([C@@H](O)c4ccccc4-c4ccc(Cl)cc4)CC3)cc2)cc1S(=O)(=O)C(F)(F)F [AZD4320] + CCN(CCO)CCCOc1ccc2c(Nc3cc(CC(=O)Nc4cccc(F)c4)[nH]n3)ncnc2c1 [AZD2811] (first compound max 1 µM, 7x7, partner max 1 µM) | 0.0573 | -0.0297 | -0.0148 | 0.0619 | 0.0044 | -0.0353 | 0.0729 | 0.0831 | 0.114 | 0.114 | 0.0322 | 0.0043 | -0.0403 | 0.044 | -0.0205 | -0.0539 | 0.0355 | -0.0596 | 0.0067 | 0.135
CN(CCO)CC[C@H](CSc1ccccc1)Nc1ccc(S(=O)(=O)NC(=O)c2ccc(N3CCC([C@@H](O)c4ccccc4-c4ccc(Cl)cc4)CC3)cc2)cc1S(=O)(=O)C(F)(F)F [AZD4320] + CN(C)CCCOc1ccc(-c2ccc3ncc4c(c3c2)n(C2CCOCC2)c(=O)n4C)cn1 [AZD0156] (first compound max 1 µM, 7x7, partner max 1 µM) | -0.0014 | -0.0509 | -0.0537 | -0.0477 | -0.0367 | -0.0254 | 0.0127 | -0.0323 | 0.0212 | -0.044 | -0.0152 | -0.0332 | -0.0511 | -0.0504 | -0.0262 | -0.09 | -0.0477 | -0.0351 | -0.0248 | -0.0117
CN(CCO)CC[C@H](CSc1ccccc1)Nc1ccc(S(=O)(=O)NC(=O)c2ccc(N3CCC([C@@H](O)c4ccccc4-c4ccc(Cl)cc4)CC3)cc2)cc1S(=O)(=O)C(F)(F)F [AZD4320] + C[C@@H]1COCCN1C2=NC(=NC(=C2)C3(CC3)[S@](=N)(=O)C)C4=C5C=CNC5=NC=C4 [AZD6738] (first compound max 1 µM, 7x7, partner max 10 µM) | 0.0076 | -0.0463 | -0.0285 | -0.0432 | -0.023 | -0.0757 | -0.0076 | 0.0256 | -0.0222 | -0.0094 | -0.0748 | -0.0269 | -0.0378 | 0.0306 | -0.0267 | -0.0734 | -0.0499 | 0.0192 | -0.0144 | 0.0156
CN(CCO)CC[C@H](CSc1ccccc1)Nc1ccc(S(=O)(=O)NC(=O)c2ccc(N3CCC([C@@H](O)c4ccccc4-c4ccc(Cl)cc4)CC3)cc2)cc1S(=O)(=O)C(F)(F)F [AZD4320] + C[C@@H](Nc1cc(F)cc(F)c1)c1cc(C(=O)N(C)C)cc2c(=O)cc(N3CCOCC3)oc12 [AZD8186] (first compound max 1 µM, 7x7, partner max 3 µM) | 0.0329 | -0.046 | 0.0018 | 0.0304 | -0.0164 | -0.0523 | 0.0259 | -0.0258 | 0.0441 | -0.104 | 0.0387 | -0.0195 | -0.0139 | -0.0028 | 0.0022 | -0.0652 | -0.0411 | -0.0294 | 0.0375 | 0.0476
CN(CCO)CC[C@H](CSc1ccccc1)Nc1ccc(S(=O)(=O)NC(=O)c2ccc(N3CCC([C@@H](O)c4ccccc4-c4ccc(Cl)cc4)CC3)cc2)cc1S(=O)(=O)C(F)(F)F [AZD4320] + Cc1cc2ncnn2cc1Nc1ncc2c(n1)n(C1CCOCC1)c(=O)n2C [AZD7648] (first compound max 1 µM, 7x7, partner max 10 µM) | -0.0034 | -0.0639 | -0.0154 | 0.001 | -0.024 | -0.025 | 0.0024 | -0.0389 | -0.0508 | -0.0614 | -0.0828 | -0.0178 | -0.0429 | -0.0694 | 0.0304 | -0.077 | -0.02 | -0.0339 | -0.0041 | 0.0119
CN(CCO)CC[C@H](CSc1ccccc1)Nc1ccc(S(=O)(=O)NC(=O)c2ccc(N3CCC([C@@H](O)c4ccccc4-c4ccc(Cl)cc4)CC3)cc2)cc1S(=O)(=O)C(F)(F)F [AZD4320] + Cn1cnc2c(F)c(Nc3ccc(Br)cc3Cl)c(C(=O)NOCCO)cc21 [Selumetinib] (first compound max 1 µM, 7x7, partner max 3 µM) | -0.0341 | 0.0502 | -0.0149 | 0.0293 | 0.0455 | 0.0228 | 0.0285 | -0.0016 | 0.0631 | -0.0474 | -0.0071 | -0.0003 | 0.0696 | -0.0375 | 0.0005 | -0.0159 | -0.0054 | -0.0011 | 0.0223 | -0.401
COc1nnc2ccc(N3CCC(c4ccc(OCCN5CCN(C)C(=O)[C@H]5C)cc4)CC3)nn12 [AZD5153] + C=CCn1c(=O)c2cnc(Nc3ccc(N4CCN(C)CC4)cc3)nc2n1-c1cccc(C(C)(C)O)n1 [AZD1775] (first compound max 1 µM, partner max 1 µM) | -0.0301 | -0.0736 | -0.0235 | -0.0353 | -0.048 | -0.0312 | -0.0604 | -0.0011 | -0.0448 | -0.0797 | -0.0521 | -0.0239 | 0.0421 | -0.107 | -0.0693 | 0.0177 | -0.0172 | 0.0237 | -0.0247 | -0.142
COc1nnc2ccc(N3CCC(c4ccc(OCCN5CCN(C)C(=O)[C@H]5C)cc4)CC3)nn12 [AZD5153] + CC1(C)CCC(CN2CCN(c3ccc(C(=O)NS(=O)(=O)c4ccc(NCC5CCOCC5)c([N+](=O)[O-])c4)c(Oc4cnc5[nH]ccc5c4)c3)CC2)=C(c2ccc(Cl)cc2)C1 [Venetoclax] (first compound max 1 µM, 7x7, partner max 1 µM) | -0.0242 | -0.11 | -0.0349 | -0.0641 | -0.0443 | 0.0777 | -0.003 | -0.0304 | -0.0455 | -0.0961 | -0.0363 | -0.0696 | -0.0908 | -0.0324 | -0.0627 | -0.0296 | -0.054 | -0.0498 | 0.0348 | -0.0277
COc1nnc2ccc(N3CCC(c4ccc(OCCN5CCN(C)C(=O)[C@H]5C)cc4)CC3)nn12 [AZD5153] + CCN(CCO)CCCOc1ccc2c(Nc3cc(CC(=O)Nc4cccc(F)c4)[nH]n3)ncnc2c1 [AZD2811] (first compound max 1 µM, 7x7, partner max 1 µM) | -0.079 | -0.118 | -0.0317 | 0.0012 | -0.0683 | -0.0295 | 0.0116 | -0.0809 | 0.0236 | -0.037 | -0.0466 | -0.0906 | -0.0246 | -0.0398 | -0.047 | -0.133 | -0.0284 | -0.0513 | -0.0378 | -0.151
COc1nnc2ccc(N3CCC(c4ccc(OCCN5CCN(C)C(=O)[C@H]5C)cc4)CC3)nn12 [AZD5153] + C[C@@H]1COCCN1C2=NC(=NC(=C2)C3(CC3)[S@](=N)(=O)C)C4=C5C=CNC5=NC=C4 [AZD6738] (first compound max 1 µM, 7x7, partner max 10 µM) | 0.0246 | 0.0107 | 0.0267 | -0.0163 | -0.0111 | 0.0103 | 0.0719 | 0.0391 | 0.029 | -0.0033 | -0.0059 | 0.008 | 0.0565 | -0.0182 | -0.0595 | 0.0638 | -0.0559 | 0.08 | 0.0146 | -0.13
